Laboratory results published in US6432922B1 (Corvas International, Inc., priority 1998, dated 2002).
Where two headings read alike, the source gives them in different places. Starred links: 1 amine or outer side, 2 acyl side, 3 side chain; linkers in the order of their positions; H or OH if unused. Non-standard residues stand in square brackets, D forms with d. Residues, ends and D or L forms follow the SMILES beside them. *: point of attachment. Hydrocinnamoyl = O=C(CCc1ccccc1)*; Isovaleryl = CC(C)CC(=O)*; dDap = NC[C@@H](N)C(=O)O; Cbz = O=C(OCc1ccccc1)*; CO = O=C([*:1])[*:2]; NHBn = c1ccc(CN*)cc1; Moc = COC(=O)*

Legend:
[1] = target: T1, human plasmin (Homo sapiens, UniProt P00747); assay: Plasmin chromogenic substrate (S-2366) assay; assay type: biochemical; conditions: 30 minute preincubation, HBSA buffer
T1 construct: purchased Enzyme Research Laboratories, Inc
Experimental: The substrate was made up in deionized water followed by dilution in HBSA prior to the assay in which the final concentration was 300 micromolar (about 2.5-times Km). Purified human plasmin was obtained from Enzyme Research Laboratories, Inc. The enzyme was diluted into HBSA prior to assay in which the final concentration was 1.0 nM.

[2] = target: Urokinase (Abbokinase) (Homo sapiens, UniProt P00749); assay: Urokinase chromogenic substrate (S-2444) IC50 assay
Experimental: The buffer used for all assays was HBSA (10 mM HEPES, pH 7.5, 150 mM sodium chloride, 0.1% bovine serum albumin).
The initial velocity of chromogenic substrate hydrolysis was measured by the change in absorbance at 405 nm using a Thermo Max® Kinetic Microplate Reader over a 5 minute period in which less than 5% of the added substrate was utilized.
The assay buffer was HBS (10mM HEPES, 150mM sodium chloride pH 7.4) with 0.1% BSA.

[3] = target: T2, Human rt-PA (Activase) (Homo sapiens, UniProt P00750); assay: Recombinant tissue plasminogen activator (rt-PA) chromogenic assay; assay type: biochemical; conditions: 30 minute preincubation, HBSA buffer; read-out: tPA IC50
T2 construct: purchased Genentech Inc
Experimental: rt-PA catalytic activity was determined using the substrate, Pefachrome t-PA (CH3SO2-D-hexahydrotyrosine-glycyl-L-arginine-p-nitroaniline, obtained from Pentap harm Ltd.). The substrate was made up in deionized water followed by dilution in HBSA prior to the assay in which the final concentration was 500 micromolar (about 3-times Km). Human rt-PA (Activase®) was obtained from Genentech Inc. The enzyme was reconstituted in deionized water and diluted into HBSA prior to the assay in which the final concentration was 1.0 nM.

[4] = read-out: uPA IC50, 30 minute preincubation, HBSA buffer

T1 sequence (P00747 581-810 limits assumed): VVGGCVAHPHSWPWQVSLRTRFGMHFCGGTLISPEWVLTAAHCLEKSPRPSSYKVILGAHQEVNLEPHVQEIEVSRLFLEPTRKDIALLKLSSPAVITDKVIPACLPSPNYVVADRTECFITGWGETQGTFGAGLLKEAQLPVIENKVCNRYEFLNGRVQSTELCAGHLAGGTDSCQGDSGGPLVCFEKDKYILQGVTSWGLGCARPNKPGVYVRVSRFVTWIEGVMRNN
T1 sequence (P00747 97-580 partner limits assumed): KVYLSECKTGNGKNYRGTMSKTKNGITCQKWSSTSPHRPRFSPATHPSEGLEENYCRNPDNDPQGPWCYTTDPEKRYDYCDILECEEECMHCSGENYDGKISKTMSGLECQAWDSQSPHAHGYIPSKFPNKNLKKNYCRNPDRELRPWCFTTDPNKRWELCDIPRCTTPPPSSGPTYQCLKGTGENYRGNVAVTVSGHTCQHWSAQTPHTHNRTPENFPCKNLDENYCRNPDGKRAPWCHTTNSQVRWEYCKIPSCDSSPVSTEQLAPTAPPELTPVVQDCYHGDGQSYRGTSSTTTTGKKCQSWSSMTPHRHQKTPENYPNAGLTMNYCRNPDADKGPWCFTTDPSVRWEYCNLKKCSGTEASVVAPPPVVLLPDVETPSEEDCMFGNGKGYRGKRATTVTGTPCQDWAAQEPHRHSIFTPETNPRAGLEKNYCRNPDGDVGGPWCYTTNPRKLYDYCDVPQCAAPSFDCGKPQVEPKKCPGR
T2 sequence (P00750 36-562): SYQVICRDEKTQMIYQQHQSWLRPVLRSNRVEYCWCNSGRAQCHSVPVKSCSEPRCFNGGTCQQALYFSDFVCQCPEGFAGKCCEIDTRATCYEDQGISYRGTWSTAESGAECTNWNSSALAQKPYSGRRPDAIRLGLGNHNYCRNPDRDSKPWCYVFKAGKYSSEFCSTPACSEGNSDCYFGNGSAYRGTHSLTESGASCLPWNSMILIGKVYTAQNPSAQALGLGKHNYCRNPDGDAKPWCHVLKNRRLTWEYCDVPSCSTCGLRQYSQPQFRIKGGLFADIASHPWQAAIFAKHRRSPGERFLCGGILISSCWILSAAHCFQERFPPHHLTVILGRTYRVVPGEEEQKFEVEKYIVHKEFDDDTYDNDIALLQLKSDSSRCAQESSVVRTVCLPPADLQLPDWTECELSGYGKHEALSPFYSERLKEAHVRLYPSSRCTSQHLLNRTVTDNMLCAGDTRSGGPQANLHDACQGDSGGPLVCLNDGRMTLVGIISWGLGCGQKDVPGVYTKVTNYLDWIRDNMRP

How did the IC50 [1] turn out when `C[C@H](NC(=O)[C@@H](CO)NS(=O)(=O)c1ccccc1)C(=O)N[C@H](C=O)CCCN=C(N)N` [Compound 28, Benzenesufonyl-D-Ser-L-Ala-L-Arg-al] was run?
The IC50 was 250 to 2500 nM.

And the IC50 [2, 4]?
The IC50 was under 100 nM.

What about the IC50 [3] of the same molecule?
The IC50 was over 2500 nM.

Which results are given for `C[C@H](NC(=O)[C@@H](CO)NS(=O)(=O)Cc1ccccc1)C(=O)N[C@H](C=O)CCCN=C(N)N` [Compound 29, Benzylsulfonyl-D-Ser-Ala-Arg-al]?
IC50 [1]: 250 to 2500 nM; IC50 [2, 4]: < 100 nM; IC50 [3]: > 2500 nM

`CC(C)COC(=O)N[C@H](CO)C(=O)N[C@@H](C)C(=O)NC(CCCN=C(N)N)C(=O)C(=O)NCCc1ccccc1` (stereo partly drawn) [Compound 30, i-butoxycarbonyl-D-Ser-Ala-Arg-CO-phenethylamide] was tested. Which IC50 [1] did it give?
The IC50 was 250 to 2500 nM.

And the IC50 [2, 4]?
The IC50 was 100 to 250 nM.

What about the IC50 [3] of the same molecule?
The IC50 was over 2500 nM.

Which results are given for `C[C@H](NC(=O)[C@@H](CO)NCCCc1ccccc1)C(=O)N[C@H](C=O)CCCNC(=N)N` [Compound 32, N-α-(3-Phenylpropyl)-D-seryl-alanyl-argininal]?
IC50 [1]: 250 to 2500 nM; IC50 [2, 4]: < 100 nM; IC50 [3]: > 2500 nM

How did the IC50 [1] turn out when `C[C@H](NC(=O)[C@@H](CO)NC(=O)CCC1CCCCC1)C(=O)N[C@H](C=O)CCCNC(=N)N` [Compound 35, 3-cyclohexylpropionyl-D-seryl-alanyl-argininal] was run?
The IC50 was over 2500 nM.

What about the IC50 [2] of the same molecule?
The IC50 was 250 to 2500 nM.

What about the IC50 [3] of the same molecule?
Its IC50 is over 2500 nM.

With `C[C@H](NC(=O)[C@@H](CO)NC(=O)OCC1CCCCC1)C(=O)N[C@H](C=O)CCCNC(=N)N` [Compound 36, cyclohexylmethyloxycarbonyl-D-seryl-alanyl-argininal] as the molecule, how does the IC50 [1] read?
Its IC50 is 250 to 2500 nM.

What about the IC50 [2] of the same molecule?
Its IC50 is under 100 nM.

And the IC50 [3]?
The IC50 was over 2500 nM.

Which IC50 [1] does the source give for `C[C@H](NC(=O)[C@@H](CO)NC(=O)NCC1CCCCC1)C(=O)N[C@H](C=O)CCCNC(=N)N` [Compound 37, cyclohexylmethylazacarbonyl-D-seryl-alanyl-argininal] here?
The IC50 was over 2500 nM.

And the IC50 [2]?
Its IC50 is 100 to 250 nM.

What about the IC50 [3] of the same molecule?
Its IC50 is over 2500 nM.

What does the source list for `C[C@H](NC(=O)[C@@H](CO)NC(=O)NCc1ccccc1)C(=O)N[C@H](C=O)CCCNC(=N)N` [Compound 38, benzylazacarbonyl-D-seryl-alanyl-argininal] ({NHBn-CO}-[dS]-Ala-Arg-aldehyde)?
IC50 [1]: > 2500 nM; IC50 [2]: 100 to 250 nM; IC50 [3]: > 2500 nM

What does the source list for `CC(C)CC(=O)N[C@H](CO)C(=O)N[C@@H](C)C(=O)N[C@H](C=O)CCCNC(=N)N` [Compound 39, isovaleryl-D-seryl-alanyl-argininal] (Isovaleryl-[dS]-Ala-Arg-aldehyde)?
IC50 [1]: > 2500 nM; IC50 [2]: 250 to 2500 nM; IC50 [3]: > 2500 nM

Which IC50 [1] does the source give for `CC(C)OC(=O)N[C@H](CO)C(=O)N[C@@H](C)C(=O)N[C@H](C=O)CCCNC(=N)N` [Compound 40, isopropyloxycarbonyl-D-seryl-alanyl-argininal] here?
The IC50 was over 2500 nM.

What about the IC50 [2] of the same molecule?
The IC50 was under 100 nM.

What about the IC50 [3] of the same molecule?
Its IC50 is over 2500 nM.

For `C[C@H](NC(=O)[C@@H](CNC(=O)CCc1ccccc1)NC(=O)OCc1ccccc1)C(=O)N[C@H](C=O)CCCNC(=N)N` [Compound 41, N-α-benzyloxycarbonyl-N-β-2-phenylethylcarbonyl-D-2,3-diaminopropionyl-alanyl-argininal] (Cbz-[dDap](Hydrocinnamoyl)-Ala-Arg-aldehyde), which IC50 [1] is on record?
The IC50 was 250 to 2500 nM.

What about the IC50 [2] of the same molecule?
Its IC50 is 250 to 2500 nM.

What about the IC50 [3] of the same molecule?
The IC50 was over 2500 nM.

How did the IC50 [1] turn out when `C[C@H](NC(=O)[C@@H](CNC(=O)OCc1ccccc1)NC(=O)OCc1ccccc1)C(=O)N[C@H](C=O)CCCNC(=N)N` [Compound 42, N-α-N-β-dibenzyloxycarbonyl-D-2,3-diaminopropionyl-alanyl-argininal] (Cbz-[dDap](Cbz)-Ala-Arg-aldehyde) was run?
Its IC50 is 100 to 250 nM.

What about the IC50 [2] of the same molecule?
The IC50 was 100 to 250 nM.

And the IC50 [3]?
The IC50 was over 2500 nM.

Which results are given for `COC(=O)NC[C@@H](NC(=O)OCc1ccccc1)C(=O)N[C@@H](C)C(=O)N[C@H](C=O)CCCNC(=N)N` [Compound 43, N-α-benzyloxycarbonyl-N-β-methyloxycarbonyl-D-2,3-diaminopropionyl-alanyl-argininal] (Cbz-[dDap](Moc)-Ala-Arg-aldehyde)?
IC50 [1]: 250 to 2500 nM; IC50 [2]: 250 to 2500 nM; IC50 [3]: > 2500 nM

Which results are given for `CC[C@@H](NC(=O)OCc1ccccc1)C(=O)N[C@@H](C)C(=O)NC(C=O)CCCNC(=N)N` (stereo partly drawn) [Compound 44]?
IC50 [1]: 250 to 2500 nM; IC50 [2]: 250 to 2500 nM; IC50 [3]: > 2500 nM
